According to US20240316136A1, “ANESTHETIC METHOD OF SPOTTED SEABASS WITH PLANT ESSENTIAL OILS” (Shanghai Ocean University, priority 2024, published 2024):

What was measured:
Type in all cases: in vivo, Lateolabrax maculatus
spotted seabass [1] = test: Blood biochemical analysis (RBC, HCT, HGB); details: after deep anesthesia; comparison between anesthetic groups, p<0.05
Method: (§1) In accordance with the principles and guiding regulations established by the Animal Protection and Utilization Committee of Shanghai Ocean University (SHOU-DW-2022-059), 200 mg/L MS-222 was used to anesthetize fish. Venous-arterial blood samples were obtained from the caudal vein using a 1 mL syringe with 10% EDTA as an anticoagulant and then preserved in anticoagulation tubes. In addition, another portion of the blood was collected without anticoagulant, then kept at 4° C. for a duration of 12 hours for stationary. The coagulated blood was centrifuged at 4000×g for 20 min at 4° C. The serum was extracted and placed in the refrigerator at −40° C. for testing.
Red blood cell count (RBC), haematocrit (HCT), and hemoglobin (HGB) in blood samples were measured in a Myriad Veterinary Automatic Blood Cell Analyser (BC-2800vet, Shenzhen, China).

spotted seabass [2] = test: Immunological indicators (ACP/AKP, IgM, LZM) in serum
Method: as §1
(§2) Acid phosphatase (ACP), glucose (GLU) and lactic acid (LD) kits (Nanjing Jiancheng Bioengineering Institute, Nanjing, China) were used to measure ACP, GLU and LD levels.
Lysozyme (LZM) activity was determined by the method of De Souza et al. Serum immunoglobulin M (IgM) concentration was measured using a fish ELISA kit (Nanjing Jiancheng Bioengineering Institute, Nanjing, China).

spotted seabass [3] = test: Sedation, anesthesia induction and resuscitation time of spotted seabass in anesthetic bath; design: key to Stage IV (deep anesthesia) time / Resuscitation time / Stage I (light sedation) time / Stage II (deep sedation) time / Stage III (light anesthesia) time: —: No anesthetic effect
Method: • 1. Healthy spotted seabass with uniform sizes and uniform respiration rates were selected and acclimated for 24 h. During the acclimatization period, the water temperature was 22±1° C., the salinity was 16%, the dissolved oxygen was 6 mg/L, pH was 7.5, and the fish-water ratio was 1:50. The metabolic wastes of the spotted seabass were discharged during acclimatization period. • 2. The emulsified Cinnamomum camphora essential oils were added to the aquariums respectively. The water temperature was controlled at 22±1° C. […] The spotted seabass were transferred to aquariums (5 fish per aquarium) with different concentrations of the Cinnamomum camphora essential oil, MS-222 and linalool anesthetics, and anesthetic concentrations, sedation concentrations and duration of anesthesia were recorded for the spotted seabass. • 4. The fish were extracted once deep anesthesia was achieved. Recovery was defined as the restoration of fish to their typical swimming behavior; the resuscitation time of the spotted seabass were recorded. • 5. The optimal concentration range was obtained, and oxidative stress and tissue injury were measured. [table] One-way analysis of variance (ANOVA) was used to evaluate the data (anesthetic induction and recovery time) using SPSS 26.0 software (SPSS Inc., Chicago, IL, USA). The significant variation was determined using Duncan's multiple range test (P<0.05). Graphs were created using Origin software.

spotted seabass [4] = test: Oxidative stress indicators (SOD, CAT, GSH-Px) in blood
Method: as §1
Superoxide Dismutase (SOD), Catalase (CAT) and Glutathione Peroxidase (GSH-Px) kits (Nanjing Jiancheng Bioengineering Institute, Nanjing, China) were used to determine SOD, CAT and GSH-Px activities in blood.

spotted seabass [5] = test: Energy metabolism indexes (glucose, lactic acid); details: P<0.05
Method: as §1, §2

[6] = test system: spotted seabass gill tissue; test: Gill tissue histopathology by light microscope after anesthesia
Method: • 1. Healthy spotted seabass with uniform sizes and uniform respiration rates were selected and acclimated for 24 h. During the acclimatization period, the water temperature was 22±1° C., the salinity was 16%, the dissolved oxygen was 6 mg/L, pH was 7.5, and the fish-water ratio was 1:50. The metabolic wastes of the spotted seabass were discharged during acclimatization period. • 2. The emulsified Cinnamomum camphora essential oils were added to the aquariums respectively. The water temperature was controlled at 22±1° C. The concentrations of the emulsified Cinnamomum camphora essential oil were 10, 20, 30, 50, 100, 150, 200 mg/L, respectively, and the same concentrations of MS-222 anesthesia solution and linalool solution were prepared at the same time. • 3. The spotted seabass were transferred to aquariums (5 fish per aquarium) with different concentrations of the Cinnamomum camphora essential oil, MS-222 and linalool anesthetics, and anesthetic concentrations, sedation concentrations and duration of anesthesia were recorded for the spotted seabass. • 4. The fish were extracted once deep anesthesia was achieved. Recovery was defined as the restoration of fish to their typical swimming behavior; the resuscitation time of the spotted seabass were recorded. • 5. The optimal concentration range was obtained, and oxidative stress and tissue injury were measured. […]

[7] = 100 mg/L in water, listed as linalool
[8] = after 24 h of recovery, vs initial
[9] = after 24 h of recovery, vs MS-222 and Cinnamomum camphora essential oil

SMILES: C=CC(C)(O)CCC=C(C)C (centres unmarked) [Linalool, 1,6-Octadien-3-ol,3,7-dimethyl]
- Percentage of hematocrit (spotted seabass [1]): lower
- IgM concentration (spotted seabass [2]; after anesthesia): decreased
- LZM activity (spotted seabass [2]; after anesthesia, change from initial): increased
- LZM activity (spotted seabass [2]; after anesthesia, comparison between anesthetic groups, P<0.05): higher
- ACP activity (spotted seabass [2]; after anesthesia, vs MS-222 and Cinnamomum camphora essential oil, P<0.05): higher
- AKP activity (spotted seabass [2]; on exposure to anesthetic): increased
- Resuscitation time (spotted seabass [3]; 5 mg/L in water): —
- Stage I (light sedation) time (spotted seabass [3]; 5 mg/L in water): —
- Stage II (deep sedation) time (spotted seabass [3]; 5 mg/L in water): —
- Stage III (light anesthesia) time (spotted seabass [3]; 5 mg/L in water): —
- Stage IV (deep anesthesia) time (spotted seabass [3]; 5 mg/L in water): —
- Resuscitation time (spotted seabass [3]; 10 mg/L in water): —
- Stage I (light sedation) time (spotted seabass [3]; 10 mg/L in water): 88.67 ± 3.21 s
- Stage II (deep sedation) time (spotted seabass [3]; 10 mg/L in water): —
- Stage III (light anesthesia) time (spotted seabass [3]; 10 mg/L in water): —
- Stage IV (deep anesthesia) time (spotted seabass [3]; 10 mg/L in water): —
- Resuscitation time (spotted seabass [3]; 20 mg/L in water): —
- Stage I (light sedation) time (spotted seabass [3]; 20 mg/L in water): 70.00 ± 3.00 s
- Stage II (deep sedation) time (spotted seabass [3]; 20 mg/L in water): 97.00 ± 4.58 s
- Stage III (light anesthesia) time (spotted seabass [3]; 20 mg/L in water): —
- Stage IV (deep anesthesia) time (spotted seabass [3]; 20 mg/L in water): —
- Resuscitation time (spotted seabass [3]; 30 mg/L in water): —
- Stage I (light sedation) time (spotted seabass [3]; 30 mg/L in water): 60.00 ± 3.00 s
- Stage II (deep sedation) time (spotted seabass [3]; 30 mg/L in water): 84.67 ± 3.51 s
- Stage III (light anesthesia) time (spotted seabass [3]; 30 mg/L in water): 103.33 ± 3.51 s
- Stage IV (deep anesthesia) time (spotted seabass [3]; 30 mg/L in water): —
- Resuscitation time (spotted seabass [3]; 50 mg/L in water): 235.00 ± 2.00 s
- Stage I (light sedation) time (spotted seabass [3]; 50 mg/L in water): 42.67 ± 3.51 s
- Stage III (light anesthesia) time (spotted seabass [3]; 50 mg/L in water): 115.00 ± 4.00 s
- Stage IV (deep anesthesia) time (spotted seabass [3]; 50 mg/L in water): 323.33 ± 2.52 s
- Resuscitation time (spotted seabass [3]; 100 mg/L in water): 255.33 ± 2.08 s
- Stage I (light sedation) time (spotted seabass [3]; 100 mg/L in water): 31.67 ± 1.15 s
- Stage III (light anesthesia) time (spotted seabass [3]; 100 mg/L in water): 103.67 ± 2.52 s
- Stage IV (deep anesthesia) time (spotted seabass [3]; 100 mg/L in water): 213.00 ± 1.73 s
- Resuscitation time (spotted seabass [3]; [7]): 344.00 s
- Stage IV (deep anesthesia) time (spotted seabass [3]; [7]): 155.33 s
- Resuscitation time (spotted seabass [3]; 150 mg/L in water): 270.00 ± 3.00 s
- Stage I (light sedation) time (spotted seabass [3]; 150 mg/L in water): 22.33 ± 2.52 s
- Stage II (deep sedation) time (spotted seabass [3]; 150 mg/L in water): 44.00 ± 2.65 s
- Stage III (light anesthesia) time (spotted seabass [3]; 150 mg/L in water): 91.67 ± 1.53 s
- Stage IV (deep anesthesia) time (spotted seabass [3]; 150 mg/L in water): 155.33 ± 3.51 s
- Resuscitation time (spotted seabass [3]; 200 mg/L in water): 310.00 ± 3.00 s
- Stage I (light sedation) time (spotted seabass [3]; 200 mg/L in water): 16.00 ± 1.00 s
- Stage II (deep sedation) time (spotted seabass [3]; 200 mg/L in water): 37.00 ± 1.73 s
- Stage III (light anesthesia) time (spotted seabass [3]; 200 mg/L in water): 86.00 ± 2.65 s
- Stage IV (deep anesthesia) time (spotted seabass [3]; 200 mg/L in water): 141.00 ± 5.29 s
- Optimal anesthetic concentration (spotted seabass [3]; criterion: induction in around 3 min and recovery within 5 min): 100 mg/L
- Concentration showing deep sedation (spotted seabass [3]; in vivo): 20 mg/L
- Concentration showing light anesthesia effect (Stage III) (spotted seabass [3]; in vivo): 30 mg/L
- Concentration showing light sedation effect (Stage I) (spotted seabass [3]; in vivo): 10 mg/L
- Minimum concentration required to achieve profound anesthesia (Stage IV) (spotted seabass [3]; in vivo, iv): 50 mg/L
- GSH-Px activity (spotted seabass [4]; [8]): still higher than the initial levels
- SOD activity (spotted seabass [4]; [8]): still higher than the initial levels
- SOD, CAT and GSH-Px activities (spotted seabass [4]; after anesthesia): increasing trend
- Glucose concentration (spotted seabass [5]; [9]): higher
- Lactic acid concentration (spotted seabass [5]; [9]): lower
- Glucose concentration (spotted seabass [5]; after anesthesia, comparison between anesthetic groups): Greater
- Lactic acid level (spotted seabass [5]; after anesthesia, vs MS-222 and Cinnamomum camphora essential oil): greater
- Gill tissue histopathological changes [6]: swollen lamellar epithelium
